This note sets out measurements from US8969556B2, “Purine-based triazoles” (Case Western Reserve University, priority 2010, dated 2015).

Molecules are shown by their SMILES. Entries after “also recorded” stand apart in the source; their conditions may differ.

The assay has as its system hippocampal slice cultures. The experiment in a line: Aβ oligomer-induced neuronal cell death by PI staining (PI uptake) in hippocampal slice cultures. The note with it: compound 1 μM, 1 h pretreatment, then Aβ oligomers 5 μM, 48 h; mouse hippocampal slices.
Protocol: In this Example, we used a convenient assay for neuronal cell death, which was induced by incubation with Aβ oligomers in hippocampal slice cultures. The binding of propidium iodide (PI) with DNA of dead cells gives characteristic fluorescence that could be followed by fluorescence microscopy. Since PI is impermeable to live cell membranes, the observed fluorescence is indicative of the extent of dead cell populations.
1.0 mg of Δβ1-42 peptide was dissolved in 120 μL of hexafluoroisopropanol for 60 min at room temperature, and placed back on ice for 5-10 min. Hexafluoroisopropanol was evaporated overnight in the hood at room temperature. The sample was dissolved by 100% DMSO by adding 20 μL of fresh anhydrous DMSO (Sigma Hybri-Max) to 0.45 mg of the peptide, and diluted to 5 mM peptide stock into medium. Diluted peptide was incubated at 4° C. for 24 h, and then centrifuged at 14,000 g for 10 min in the cold. Before treating slice culture with Δβ oligomers, the oligomers were incubated at room temperature for 20 h.
Hippocampal slice cultures were prepared from 7-10 day-old mouse pups. Slices were cut at 400 μm on a Mcllwain tissue chopper, transferred to Millicell (Millipore Corp., Bedford, Mass.) membrane inserts (0.4 μm), and placed in 6-well culture plated. The upper surfaces of the slices were exposed to a humidified 37° C. atmosphere containing 5% CO2. Slice culture media consisted of basal Eagles medium with Earle's balanced salt solution, 20% heat-inactivated horse serum, enriched with glucose to a concentration of 5.6 mM. The medium was changed every other day. Slices were examined periodically for viability, and any dark or abnormal slices were discarded.
The effects of Δβ oligomers were tested in the slices which had been maintained for 15-20 days in vitro. All reagents were added to serum free medium (no horse serum). Δβ oligomers were added to cultures in serum free medium. Vehicles were treated the same way except with no peptide.
To analyze the degree of hippocampal neuronal cell death, hippocampal slices were stained by adding PI into slice culture medium at a concentration of 5 μg/mL. At indicated times after Δβ oligomers treatment, the degree of hippocampal neuronal death was evaluated by microscopic observation of PI uptake as described previously. […] The intensity of the fluorescence was quantitatively analyzed using Scion Image. The images were expressed as an arbitrary unit of PI uptake.
Mouse hippocampal slice cultures were treated with Aβ oligomers in the presence of PI as the staining agent. The degree of hippocampal neuronal death was monitored by fluorescence microscopic observation of the PI uptake. The intensities of the fluorescence were conveniently analyzed using Scion images. The intensity of the PI fluorescence reflects the relative number of the dead cells, since PI cannot permeate the live cell membranes.
`Fc1c(F)c(F)c(Cn2cc(Cn3cnc4c(NCc5ccccc5)nc(Cl)nc43)nn2)c(F)c1F` [Compound 9, 2-Chloro-6-benzylamino-9-[1-(pentafluorobenzyl)-1H-1,2,3-triazol-4-yl-methyl]purine]: the “neuroprotective effect against Aβ-induced neurotoxicity (neuronal cell survival, PI uptake)” value (from here on “neuroprotective effect”) is reported as “virtually no neuroprotective effect”.

As to `CC[C@H](CO)Nc1nc(NCc2ccccc2)c2ncn(C(C)C)c2n1` [Roscovitine, reference compound], the “neuroprotective effect” value is given as “neuronal cell survival rates comparable to those of the control experiments”.

With `Clc1nc(NCc2ccccc2)c2ncn(Cc3cn(Cc4ccccc4)nn3)c2n1` [Compound 6, 2-Chloro-6-benzylamino-9-(1-benzyl-1H-1,2,3-triazol-4-yl-methyl)purine], the “neuroprotective effect” value is given as “only marginal effects”.

Take `CN1CC[C@H](c2c(O)cc(O)c3c(=O)cc(-c4ccccc4Cl)oc23)[C@H](O)C1` [Flavopiridol, reference compound]: the “neuroprotective effect” value is listed as “neuronal cell survival rates comparable to those of the control experiments”.

As for `Fc1ccccc1Cn1cc(Cn2cnc3c(NCc4ccccc4)nc(Cl)nc32)nn1` [Compound 7, 2-Chloro-6-benzylamino-9-[1-(2-fluorobenzyl)-1H-1,2,3-triazol-4-yl-methyl]purine], the “neuroprotective effect” value is “neuronal cell survival rates comparable to those of the control experiments; also recorded: effectively suppressed Aβ-induced neurotoxicity”.

`Fc1cccc(F)c1Cn1cc(Cn2cnc3c(NCc4ccccc4)nc(Cl)nc32)nn1` [Compound 8, 2-Chloro-6-benzylamino-9-[1-(2,6-difluorobenzyl)-1H-1,2,3-triazol-4-yl-methyl]purine]: the “neuroprotective effect” value is “only marginal effects”.
